Laboratory results reported in publication PMC8508980, “Design, Synthesis and Anticancer Profile of New 4-(1H-benzo[d]imidazol-1-yl)pyrimidin-2-amine-Linked Sulfonamide Derivatives with V600EBRAF Inhibitory Effect” (International Journal of Molecular Sciences, 2021).

What was measured:
Assay in all cases: NCI 60 cell line screen
Type in all cases: cell-based, human
SK-MEL-5 = conditions: for activity at 10 µM: Homo sapiens, SK-MEL-5, Melanoma, read-out: Percent growth; for percent inhibition: SK-MEL-5, NCI-60 heat map analysis
In short: (§1)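 Five-dose sulforhodamine B growth assay: 48 h treatment (top concentration 10 µM) following 24 h plating, with protein mass quantified at 515 nm. GI50 reflects 50% reduction of net protein increase over control; TGI is the concentration giving no net growth.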

MOLT-4 = conditions: Homo sapiens; MOLT-4, Leukemia; read-out: Percent growth
In short: as §1

K-562 = conditions: Homo sapiens, K562; K-562, Leukemia; read-out: Percent growth
In short: (§2)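 48 h continuous exposure, five doses, highest 10 µM; cells in RPMI 1640 + 5% FBS at 37 °C, 5% CO2. TCA fixation, sulforhodamine B staining, A515.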

NCI-H460 = conditions: Homo sapiens; NCI-H460, Non-Small Cell Lung Cancer; read-out: Percent growth
In short: as §2

CAKI-1 = conditions: Homo sapiens; CAKI-1, Renal Cancer; read-out: Percent growth
In short: as §2

HT29 = conditions: Homo sapiens, HT-29; HT29, Colon Cancer; read-out: Percent growth
In short: as §2

KM12 = conditions: Homo sapiens; KM12, Colon Cancer; read-out: Percent growth
In short: as §1

T-47D = conditions: for activity at 10 µM: Homo sapiens, T47D, Breast Cancer, read-out: Percent growth; for percent inhibition: NCI-60 heat map analysis
In short: as §1

RPMI-8226 = conditions: Homo sapiens; RPMI-8226, Leukemia; read-out: Percent growth
In short: as §1

U251 = conditions: Homo sapiens, U-251; U251, CNS-Cancer; read-out: Percent growth
In short: as §2

HCT-15 = conditions: Homo sapiens; HCT-15, Colon Cancer; read-out: Percent growth
In short: as §2

NCI-H226 = conditions: Homo sapiens; NCI-H226, Non-Small Cell Lung Cancer; read-out: Percent growth
In short: as §1

MDA-MB-468 = conditions: Homo sapiens; MDA-MB-468, Breast Cancer; read-out: Percent growth
In short: as §1

OVCAR-4 = conditions: Homo sapiens; OVCAR-4, Ovarian Cancer; read-out: Percent growth
In short: as §1

Structure (SMILES)	activity at 10 µM (SK-MEL-5) [%]	activity at 10 µM (MOLT-4) [%]	activity at 10 µM (K-562) [%]	activity at 10 µM (NCI-H460) [%]	activity at 10 µM (CAKI-1) [%]	activity at 10 µM (HT29) [%]	activity at 10 µM (KM12) [%]	activity at 10 µM (T-47D) [%]	activity at 10 µM (RPMI-8226) [%]	activity at 10 µM (U251) [%]	activity at 10 µM (HCT-15) [%]	activity at 10 µM (NCI-H226) [%]	activity at 10 µM (MDA-MB-468) [%]	activity at 10 µM (OVCAR-4) [%]	percent inhibition (SK-MEL-5) [%]	percent inhibition (T-47D) [%]
COc1ccc(S(=O)(=O)NCCNc2nccc(-n3cnc4ccccc43)n2)cc1 [12f, N-(2-((4-(1H-benzo [d]imidazol-1-yl)pyrimidin-2-yl)amino)ethyl)-4-methoxy benzenesulfonamide]	92.2	93.3	93	106	79.6	100	93.2	82.3	94	103	93.7	80.6	80.3	84.3	–	–
O=S(=O)(NCCCNc1nccc(-n2cnc3ccccc32)n1)c1ccc(Cl)cc1 [12j, N-(3-((4-(1H-benzo [d]imidazol-1-yl)pyrimidin-2-yl)amino)propyl)-4-chloro benzenesulfonamide]	76.2	82.3	79.2	99.8	94.5	104	92	65.3	78	100	93.1	83.2	93.8	83	–	–
O=S(=O)(NCCNc1nccc(-n2cnc3ccccc32)n1)c1ccc(F)cc1 [12b, N-(2-((4-(1H-benzo [d]imidazol-1-yl)pyrimidin-2-yl)amino)ethyl)-4-fluorobenzenesulfonamide]	78	90.5	84	96.3	82	94.4	73.4	64.4	73.6	99.5	100	77.5	71.6	72.3	–	–
O=S(=O)(NCCNc1nccc(-n2cnc3ccccc32)n1)c1ccc(Cl)cc1 [12c, N-(2-((4-(1H-benzo [d]imidazol-1-yl)pyrimidin-2-yl)amino)ethyl)-4-chlorobenzenesulfonamide]	99.4	103	97.6	103	87.4	103	97.1	97.1	99.4	102	96.6	91.1	101	95.2	–	–
O=S(=O)(NCCCNc1nccc(-n2cnc3ccccc32)n1)c1ccc(Br)cc1 [12k, N-(3-((4-(1H-benzo [d]imidazol-1-yl)pyrimidin-2-yl)amino)propyl)-4-bromo benzenesulfonamide]	53.5	64.9	73.5	94.3	84.5	103	68.3	45.3	71.1	96.6	83.2	80.2	70.7	72.1	40	55
O=S(=O)(NCCNc1nccc(-n2cnc3ccccc32)n1)c1ccc(Br)cc1 [12d, N-(2-((4-(1H-benzo [d]imidazol-1-yl)pyrimidin-2-yl)amino)ethyl)-4-bromobenzenesulfonamide]	89.1	95.9	88.4	101	81.5	97.2	85.4	59.1	79.8	98.6	95.7	76.5	84	82.2	–	–
COc1ccc(S(=O)(=O)NCCCNc2nccc(-n3cnc4ccccc43)n2)cc1 [12m, N-(3-((4-(1H-benzo [d]imidazol-1-yl)pyrimidin-2-yl)amino)propyl)-4-methoxy benzenesulfonamide]	70.1	77	78.8	97.3	68.8	99.7	84.1	66.3	78.6	94.5	92.3	73.2	77.2	77.4	–	–
O=S(=O)(NCCCNc1nccc(-n2cnc3ccccc32)n1)c1ccccc1 [12h, N-(3-((4-(1H-benzo [d]imidazol-1-yl)pyrimidin-2-yl)amino)propyl)benzenesulfonamide]	60.2	77.2	79.5	96.9	87.4	101	71	45.8	74.3	98.2	88	81	68.8	74.5	40	55
O=S(=O)(NCCNc1nccc(-n2cnc3ccccc32)n1)c1ccccc1 [12a, N-(2-((4-(1H-benzo [d]imidazol-1-yl)pyrimidin-2-yl)amino)ethyl)benzenesulfonamide]	95.8	93.7	84.8	103	83.7	102	100	75.4	84.9	103	97	84.6	94.3	93.4	–	–
